Our source for the EC50 values is patent US11254663B2 (BRISTOL-MYERS SQUIBB COMPANY, priority 2019, dated 2022).

The target of the first assay is FXR (Homo sapiens (Human), UniProt Q96RI1). Nature of the assay: transient human FXR/Gal4-luciferase reporter assay. It counts as cell-based.
FXR, sequence (Q96RI1 262-486): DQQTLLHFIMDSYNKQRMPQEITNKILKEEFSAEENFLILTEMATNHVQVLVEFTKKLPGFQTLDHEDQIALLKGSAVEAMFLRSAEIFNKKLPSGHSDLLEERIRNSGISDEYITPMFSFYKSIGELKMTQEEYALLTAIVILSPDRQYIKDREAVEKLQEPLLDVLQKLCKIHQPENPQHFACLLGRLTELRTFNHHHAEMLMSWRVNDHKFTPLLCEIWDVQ
Settings: not given
The method in brief: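 Compound exposure ran overnight at 37 °C and activity was measured as luminescence with Steady-Glo reagent. The cells were a HEK293 line stably expressing firefly luciferase under five Gal4 response elements. They were transiently transfected, one night beforehand, with a plasmid encoding Gal4 DNA-binding domain fused to the human FXR ligand-binding domain.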
On the technique in general: A reporter such as luciferase makes a cellular process visible.
For orientation: EC50 means the concentration that produces a half-maximal response. Molecule `O=C(N(CC12CCC(c3ccc(C(F)(F)F)cn3)(CC1)CC2)c1cccc(-c2cnc(C(F)(F)F)nc2)c1)C12CC(F)(C1)C2` [Example 491, 3-fluoro-N-((4-(5-(trifluoromethyl)pyridin-2-yl)bicyclo[2.2.2]octan-1-yl)methyl)-N-(3-(2-(trifluoromethyl)pyrimidin-5-yl)phenyl)bicyclo[1.1.1]pentane-1-carboxamide] displayed an EC50 of 1.63 µM.

`CCOc1ncc(-c2cccc(N(CC34CCC(c5noc(C(C)(C)C)n5)(CC3)CC4)C(=O)C3(C)COC3)c2)cn1` [Example 510, N-((4-(5-(tert-butyl)-1,2,4-oxadiazol-3-yl)bicyclo[2.2.2]octan-1-yl)methyl)-N-(3-(2-ethoxypyrimidin-5-yl)phenyl)-3-methyloxetane-3-carboxamide]: the EC50 was 0.974 µM.

`Cn1nc(C2CC2)cc1C12CCC(CN(C(=O)C34CC(F)(C3)C4)c3cc(-c4ccc(NS(C)(=O)=O)cc4)ccn3)(CC1)CC2` [Example 547, N-((4-(3-cyclopropyl-1-methyl-1H-pyrazol-5-yl)bicyclo[2.2.2]octan-1-yl)methyl)-3-fluoro-N-(4-(4-(methylsulfonamido)phenyl)pyridin-2-yl)bicyclo[1.1.1]pentane-1-carboxamide]: the response was half-maximal at 0.251 µM (EC50).

The assay is the same for the next values; noted with them: Gal4-hFXR fusion construct, HEK293 reporter cells; response relative to 8 μM GW-4064.
Regarding `Cc1nc2ncc(-c3cccc(N(CC45CCC(c6noc(C(C)(C)C)n6)(CC4)CC5)C(=O)C45CC(F)(C4)C5)c3)cc2s1` [Example 449, N-((4-(5-(tert-butyl)-1,2,4-oxadiazol-3-yl)bicyclo[2.2.2]octan-1-yl)methyl)-3-fluoro-N-(3-(2-methylthiazolo[4,5-b]pyridin-6-yl)phenyl)bicyclo[1.1.1]pentane-1-carboxamide], the EC50 worked out at 0.098 µM.

As to `CC(C)(C)c1noc(C23CCC(CN(C(=O)C45CC(F)(C4)C5)c4cccc(-c5cnc(C(F)(F)F)nc5)c4)(CC2)CC3)n1` [Example 366, N-((4-(3-(tert-butyl)-1,2,4-oxadiazol-5-yl)bicyclo[2.2.2]octan-1-yl)methyl)-3-fluoro-N-(3-(2-(trifluoromethyl)pyrimidin-5-yl)phenyl)bicyclo[1.1.1]pentane-1-carboxamide], the EC50 was determined as 0.454 µM.

In turn, `CC(C)(F)c1nc(C23CCC(CN(C(=O)OC4CC(F)(F)C4)c4cc(-c5ccc(OC(F)F)cc5)c(F)cn4)(CC2)CC3)no1` [Example 630, 3,3-difluorocyclobutyl(4-(4-(difluoromethoxy)phenyl)-5-fluoropyridin-2-yl)((4-(5-(2-fluoropropan-2-yl)-1,2,4-oxadiazol-3-yl)bicyclo[2.2.2]octan-1-yl)methyl)carbamate] showed an EC50 of 0.16 µM.

For the molecule `O=C(N(CC12CCC(c3nc(C4CC4)no3)(CC1)CC2)c1cccc(-c2ccnc(OC3CC3)n2)c1)C12CC(F)(C1)C2` [Example 337, N-(3-(2-cyclopropoxypyrimidin-4-yl)phenyl)-N-((4-(3-cyclopropyl-1,2,4-oxadiazol-5-yl)bicyclo[2.2.2]octan-1-yl)methyl)-3-fluorobicyclo[1.1.1]pentane-1-carboxamide], the response was half-maximal at 0.38 µM (EC50).

Molecule `CC(C)(C)c1noc(C23CCC(CN(C(=O)C45CC(F)(C4)C5)c4cccc(-c5ccc(OC(F)F)cc5)c4)(CC2)CC3)n1` [Example 368, N-((4-(3-(tert-butyl)-1,2,4-oxadiazol-5-yl)bicyclo[2.2.2]octan-1-yl)methyl)-N-(4′-(difluoromethoxy)-[1,1′-biphenyl]-3-yl)-3-fluorobicyclo[1.1.1]pentane-1-carboxamide] came in with an EC50 of 0.135 µM.

As to `CCc1cnc(-c2cccc(N(CC34CCC(c5noc(C(C)(C)C)n5)(CC3)CC4)C(=O)C34CC(F)(C3)C4)c2)nc1` [Example 453, N-((4-(5-(tert-butyl)-1,2,4-oxadiazol-3-yl)bicyclo[2.2.2]octan-1-yl)methyl)-N-(3-(5-ethylpyrimidin-2-yl)phenyl)-3-fluorobicyclo[1.1.1]pentane-1-carboxamide], the response was half-maximal at 0.034 µM (EC50).

`CCOc1cnc(-c2cccc(N(CC34CCC(c5nc(C6CC6)no5)(CC3)CC4)C(=O)C34CC(F)(C3)C4)c2)nc1` [Example 333, N-((4-(3-cyclopropyl-1,2,4-oxadiazol-5-yl)bicyclo[2.2.2]octan-1-yl)methyl)-N-(3-(5-ethoxypyrimidin-2-yl)phenyl)-3-fluorobicyclo[1.1.1]pentane-1-carboxamide] showed an EC50 of 0.302 µM.

`CC(C)c1noc(C23CCC(CN(C(=O)C45CC(F)(C4)C5)c4cccc(-c5ccc(NS(C)(=O)=O)cc5)c4)(CC2)CC3)n1` [Example 376, 3-fluoro-N-((4-(3-isopropyl-1,2,4-oxadiazol-5-yl)bicyclo[2.2.2]octan-1-yl)methyl)-N-(4′-(methylsulfonamido)-[1,1′-biphenyl]-3-yl)bicyclo[1.1.1]pentane-1-carboxamide] showed an EC50 of 0.032 µM.

`COc1ccc(-c2cccc(N(CC34CCC(c5cc(C6CC6)nn5C)(CC3)CC4)C(=O)C34CC(F)(C3)C4)c2)cc1` [Example 414, N-((4-(3-cyclopropyl-1-methyl-1H-pyrazol-5-yl)bicyclo[2.2.2]octan-1-yl)methyl)-3-fluoro-N-(4′-methoxy-[1,1′-biphenyl]-3-yl)bicyclo[1.1.1]pentane-1-carboxamide] came in with an EC50 of 0.085 µM.

`CC(C)(C)c1noc(C23CCC(CN(C(=O)C45CC(F)(C4)C5)c4cccc(-c5ccc(NS(C)(=O)=O)nc5)c4)(CC2)CC3)n1` [Example 364, N-((4-(3-(tert-butyl)-1,2,4-oxadiazol-5-yl)bicyclo[2.2.2]octan-1-yl)methyl)-3-fluoro-N-(3-(6-(methylsulfonamido)pyridin-3-yl)phenyl)bicyclo[1.1.1]pentane-1-carboxamide] had an EC50 of 0.509 µM.

Consider `CC(C)c1nc(C23CCC(CN(C(=O)C45CC(F)(C4)C5)c4cccc(-c5cnc(C(F)(F)F)nc5)c4)(CC2)CC3)no1` [Example 435, 3-fluoro-N-((4-(5-isopropyl-1,2,4-oxadiazol-3-yl)bicyclo[2.2.2]octan-1-yl)methyl)-N-(3-(2-(trifluoromethyl)pyrimidin-5-yl)phenyl)bicyclo[1.1.1]pentane-1-carboxamide], for which the response was half-maximal at 0.24 µM (EC50).

`COc1cnc(-c2cccc(N(CC34CCC(c5noc(C(C)(C)C)n5)(CC3)CC4)C(=O)C34CC(F)(C3)C4)c2)nc1` [Example 450, N-((4-(5-(tert-butyl)-1,2,4-oxadiazol-3-yl)bicyclo[2.2.2]octan-1-yl)methyl)-3-fluoro-N-(3-(5-methoxypyrimidin-2-yl)phenyl)bicyclo[1.1.1]pentane-1-carboxamide] had an EC50 of 0.068 µM. Compared with the last molecule, the EC50 is about 3.5-fold lower.

For `O=C(N(CC12CCC(c3nc(C4CC4)no3)(CC1)CC2)c1cccc(-c2ccn3cnnc3c2)c1)C12CC(F)(C1)C2` [Example 307, N-(3-([1,2,4]triazolo[4,3-a]pyridin-7-yl)phenyl)-N-((4-(3-cyclopropyl-1,2,4-oxadiazol-5-yl)bicyclo[2.2.2]octan-1-yl)methyl)-3-fluorobicyclo[1.1.1]pentane-1-carboxamide], the EC50 was 0.832 µM. This EC50 lies about 12-fold higher than the previous one.

The molecule `CC(C)(C)c1noc(C23CCC(CN(C(=O)C45CC(F)(C4)C5)c4cccc(-c5cnc(C6CC6)nc5)c4)(CC2)CC3)n1` [Example 358, N-((4-(3-(tert-butyl)-1,2,4-oxadiazol-5-yl)bicyclo[2.2.2]octan-1-yl)methyl)-N-(3-(2-cyclopropylpyrimidin-5-yl)phenyl)-3-fluorobicyclo[1.1.1]pentane-1-carboxamide] yielded an EC50 of 0.154 µM.

As for `CC(C)(O)c1ccc(-c2cccc(N(CC34CCC(c5noc(C(C)(C)F)n5)(CC3)CC4)C(=O)NC3CCC(O)(C(F)(F)F)CC3)c2)cc1` (single isomer, unassigned) [Example 601, 1-((4-(5-(2-fluoropropan-2-yl)-1,2,4-oxadiazol-3-yl)bicyclo[2.2.2]octan-1-yl)methyl)-3-(4-hydroxy-4-(trifluoromethyl)cyclohexyl)-1-(4′-(2-hydroxypropan-2-yl)-[1,1′-biphenyl]-3-yl) urea], the EC50 was 0.246 µM. This EC50 lies about 1.6-fold higher than the previous one.

The molecule `COc1ncc(-c2cccc(N(CC34CCC(c5nc(C(C)(C)C)no5)(CC3)CC4)C(=O)C34CC(F)(C3)C4)c2)cn1` [Example 363, N-((4-(3-(tert-butyl)-1,2,4-oxadiazol-5-yl)bicyclo[2.2.2]octan-1-yl)methyl)-3-fluoro-N-(3-(2-methoxypyrimidin-5-yl)phenyl)bicyclo[1.1.1]pentane-1-carboxamide] showed an EC50 of 0.07 µM.

Consider `CC(C)(OC(=O)N(CC12CCC(c3nc(C4CC4)no3)(CC1)CC2)c1nccc(C23CCC(C#N)(CC2)CC3)n1)C(F)(F)F` [Example 665, 1,1,1-trifluoro-2-methylpropan-2-yl (4-(4-cyanobicyclo[2.2.2]octan-1-yl)pyrimidin-2-yl)((4-(3-cyclopropyl-1,2,4-oxadiazol-5-yl)bicyclo[2.2.2]octan-1-yl)methyl)carbamate], for which the EC50 was determined as 2 µM.

`CCOc1ncc(-c2cccc(N(CC34CCC(c5noc(C(C)(C)C)n5)(CC3)CC4)C(=O)C34CC(F)(C3)C4)c2)cn1` [Example 437, N-((4-(5-(tert-butyl)-1,2,4-oxadiazol-3-yl)bicyclo[2.2.2]octan-1-yl)methyl)-N-(3-(2-ethoxypyrimidin-5-yl)phenyl)-3-fluorobicyclo[1.1.1]pentane-1-carboxamide]: the EC50 was determined as 0.039 µM.

The molecule `CC(C)(O)c1ccc(-c2cccc(N(CC34CCC(c5noc(C(C)(C)F)n5)(CC3)CC4)C(=O)N3CC4(C3)CS(=O)(=O)C4)c2)cc1` [Example 641, N-((4-(5-(2-fluoropropan-2-yl)-1,2,4-oxadiazol-3-yl)bicyclo[2.2.2]octan-1-yl)methyl)-N-(4′-(2-hydroxypropan-2-yl)-[1,1′-biphenyl]-3-yl)-2-thia-6-azaspiro[3.3]heptane-6-carboxamide 2,2-dioxide] showed a half-maximal effective concentration (EC50) of 1.3 µM.

For `CC(C)(O)c1ccc(-c2cccc(N(CC34CCC(c5noc(C(C)(F)F)n5)(CC3)CC4)C(=O)C34CC(C#N)(C3)C4)c2)cc1` [Example 585, 3-cyano-N-((4-(5-(1,1-difluoroethyl)-1,2,4-oxadiazol-3-yl)bicyclo[2.2.2]octan-1-yl)methyl)-N-(4′-(2-hydroxypropan-2-yl)-[1,1′-biphenyl]-3-yl)bicyclo[1.1.1]pentane-1-carboxamide], a half-maximal effect (EC50) was put at 0.018 µM.
